From PubChem BioAssay (NCI)
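All cell lines were grown in 96-well plates and treated with compound for 48 hours. GI50 = concentration required for 50% inhibition of growth. TGI: total growth inhibition.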

What was measured:
Assay in all cases: NCI anticancer screen, dose series, 48 h
[1] = tested on: COLO 205 colon
[2] = tested on: NCI-H522 lung
[3] = tested on: HOP-62 NSCLC
[4] = tested on: HCT-116 colon
[5] = tested on: M14 melanoma
[6] = tested on: EKVX NSCLC
[7] = tested on: OVCAR-4 ovarian
[8] = tested on: SF-295 CNS
[9] = tested on: HT29 colon
[10] = tested on: RPMI-8226 leukemia

SMILES	TGI [1]	TGI [2]	TGI [3]	TGI [4]	TGI [5]	TGI [6]	TGI [7]	TGI [8]	TGI [9]	TGI [10]	GI50 [4]	GI50 [2]	GI50 [7]	GI50 [9]	GI50 [10]
COc1ccc(/C=C2\C[C@H]3[C@@H]4CCC5=CC(=O)CC[C@]5(C)[C@H]4CC[C@]3(C)C2=O)cc1OC	9.93 µM	9.87 µM	> 100 µM	> 100 µM	> 100 µM	61.2 µM	> 100 µM	> 100 µM	> 100 µM	47.3 µM	–	–	–	–	–
CCOC(=O)c1c(NC(=S)Nc2ccccc2)sc2c1CCOC2	> 100 µM	> 100 µM	> 100 µM	> 100 µM	> 100 µM	> 100 µM	> 100 µM	> 100 µM	> 100 µM	> 100 µM	–	–	–	–	–
COc1ccc2nc3cc(Cl)ccc3c(SCC(=O)Nc3ccccc3-c3ccccc3NC(=O)CSc3c4ccc(Cl)cc4nc4ccc(OC)cc34)c2c1	> 100 µM	> 100 µM	> 100 µM	> 100 µM	> 100 µM	> 100 µM	> 100 µM	> 100 µM	> 100 µM	> 100 µM	–	–	–	–	–
CCN1CN(c2ccccc2)C2(CCN(CC(CC3OCCO3)c3ccc(F)cc3)CC2)C1=O (stereo not given)	1.95 µM	26.6 µM	12.1 µM	11 µM	9.54 µM	> 100 µM	36.3 µM	18.9 µM	5.69 µM	60.2 µM	–	–	–	–	–
C=C1C[C@H](O)[C@H](Br)C(C)(C)C12CCC(C)(Cl)C(Br)C2 (stereo not given in full)	2.29 µM	15 µM	12.2 µM	16.1 µM	13.3 µM	1.61 µM	7.95 µM	8.13 µM	0.895 µM	3.76 µM	–	–	–	–	–
CCOC(=O)c1cccc(NC(=O)CI)c1	1.86 µM	0.347 µM	2.44 µM	0.946 µM	0.664 µM	3.94 µM	3.02 µM	5.69 µM	0.646 µM	3.28 µM	–	–	–	–	–
O=CN1CCN(C(=O)c2ccc(Cl)c(Cl)c2)C1=S	37.8 µM	28.7 µM	32.9 µM	30.1 µM	31.4 µM	31.7 µM	33.6 µM	34.4 µM	38.4 µM	7.74 µM	–	–	–	–	–
O=C(N/N=C(/COc1ccccc1)N=Cc1cccnc1)c1ccncc1	> 100 µM	> 100 µM	> 100 µM	> 100 µM	> 100 µM	> 100 µM	> 100 µM	> 100 µM	> 100 µM	> 100 µM	–	–	–	–	–
CCOc1cc2c(c(OCC)c1O)CC[C@@H]1[C@@H]2CC[C@]2(C)[C@@H](O)CC[C@@H]12	55.3 µM	23.1 µM	40.5 µM	18.1 µM	> 100 µM	> 100 µM	> 100 µM	13.1 µM	24.7 µM	31.1 µM	0.801 µM	–	–	–	–
Cc1cnc2sn(-c3ccc(Br)cc3)c(=O)c2c1	49.3 µM	16.9 µM	81.5 µM	> 100 µM	> 100 µM	> 100 µM	79.3 µM	97.8 µM	75 µM	> 100 µM	–	–	–	–	–
c1ccc([I+]c2ccccc2)cc1	> 100 µM	> 100 µM	> 100 µM	> 100 µM	> 100 µM	> 100 µM	> 100 µM	> 100 µM	> 100 µM	> 100 µM	–	–	–	–	–
CC(C)N(C(C)C)S(=O)(=O)C[C@]12CC[C@H](CC13OCC(CS(=O)(=O)c1ccccc1)O3)C2(C)C (stereo not given in full)	34.8 µM	> 100 µM	> 100 µM	> 100 µM	> 100 µM	> 100 µM	> 100 µM	> 83.8 µM	> 100 µM	> 100 µM	–	–	–	–	–
CCO/C=N/C1=C(C#N)SC2=N/C(=C\c3ccccc3)C(=O)N21	> 100 µM	> 100 µM	> 100 µM	> 100 µM	> 100 µM	> 100 µM	> 100 µM	> 100 µM	> 100 µM	> 100 µM	–	–	–	–	–
CCOC(=O)c1nnc2c(C#N)c(-c3ccccc3)c(C)n2c1N	> 100 µM	70.5 µM	> 100 µM	> 100 µM	> 100 µM	> 100 µM	43.6 µM	> 100 µM	> 100 µM	53.9 µM	–	–	–	–	–
CC(=O)N(C(C)=O)c1cc2c3c(c1)CCCN3CCC2	> 10 µM	> 10 µM	> 10 µM	> 10 µM	> 10 µM	> 10 µM	> 10 µM	> 10 µM	> 10 µM	> 10 µM	–	–	–	–	–
CCOC(=O)/C=C(/C)Nc1nc2c(c(C(=O)OC)c1C#N)CCCC2	> 100 µM	> 100 µM	> 100 µM	> 100 µM	> 100 µM	> 100 µM	> 100 µM	> 100 µM	> 100 µM	> 100 µM	–	–	–	–	–

SMILES	TGI [1]	TGI [2]	TGI [3]	TGI [4]	TGI [5]	TGI [6]	TGI [7]	TGI [8]	TGI [9]	TGI [10]	GI50 [4]	GI50 [2]	GI50 [7]	GI50 [9]	GI50 [10]
BrCC[N+]12CC[N+](CCBr)(CC1)C2	> 100 µM	> 100 µM	> 100 µM	> 100 µM	> 100 µM	> 100 µM	> 100 µM	> 100 µM	> 100 µM	> 100 µM	–	–	–	–	–
CNc1nc(C(N)=O)c(N)s1	> 100 µM	> 100 µM	> 100 µM	> 100 µM	> 100 µM	> 100 µM	> 100 µM	> 100 µM	> 100 µM	> 100 µM	–	–	–	–	–
Fc1ccc(C(OCCN2CC3CCC(C2)N3CCCc2ccccc2)c2ccc(F)cc2)cc1	2.74 µM	5.15 µM	21.3 µM	11.3 µM	6.26 µM	16.4 µM	16.4 µM	11.8 µM	13.7 µM	4.8 µM	–	–	–	–	–
Cn1c(N)nc(-c2ccc(Cl)cc2)c1SSc1c(-c2ccc(Cl)cc2)nc(N)n1C	3.81 µM	3.62 µM	7.69 µM	13.4 µM	3.78 µM	6.47 µM	3.21 µM	21.4 µM	4.74 µM	3.3 µM	–	–	–	–	–
CN(C)c1ccc(C=C2C(=O)NC(=S)NC2=O)c2ccccc12	> 100 µM	37.5 µM	> 100 µM	> 100 µM	> 100 µM	> 100 µM	> 100 µM	> 100 µM	> 100 µM	> 100 µM	–	–	–	–	–
O=C1CC(NCc2ccccc2)c2c(Cl)sc(Cl)c21 (stereo not given)	56 µM	18.3 µM	> 88.1 µM	33.1 µM	> 63.6 µM	> 100 µM	> 87.3 µM	> 100 µM	74.5 µM	6.82 µM	–	–	–	–	–
NS(=O)(=O)c1ccc(/C=C/c2ccc(O)cc2)cc1	35.3 µM	50.2 µM	82.9 µM	85.6 µM	> 100 µM	69.8 µM	> 100 µM	65 µM	35.1 µM	39.3 µM	–	13.8 µM	36.9 µM	17.8 µM	7.09 µM
O=C(c1ccccc1)N1C(=S)N(c2ccccn2)C(=Nc2ccccc2)C1=Nc1ccccc1	> 52.7 µM	5.61 µM	> 84 µM	> 77.3 µM	> 100 µM	> 100 µM	32.5 µM	> 73.8 µM	> 100 µM	31.1 µM	–	–	–	–	–
Cc1ccc(N(C)S(=O)(=O)c2ccccc2[N+](=O)[O-])cc1	> 100 µM	94.6 µM	> 100 µM	> 100 µM	44.5 µM	> 100 µM	> 100 µM	> 100 µM	> 100 µM	> 100 µM	–	–	–	–	–
CCOP(=O)(OCC)OC1c2[nH]cc(C(=O)OCc3ccccc3)c2-c2cc(C(=O)OC)[nH]c2C1OC (stereo not given)	> 100 µM	29.1 µM	36.3 µM	> 85.4 µM	> 100 µM	70.7 µM	> 100 µM	28.8 µM	> 48.4 µM	> 100 µM	–	–	–	–	–
O=C(NNC(=O)c1csc(NC(=S)NC2CCCCC2)n1)c1ccccc1	20.1 µM	28.4 µM	32.5 µM	15.9 µM	35.4 µM	28.4 µM	> 100 µM	51.9 µM	21.3 µM	69.9 µM	–	–	–	–	–
COC(=O)/C=C1/OC(c2ccc(OC)cc2)=C(Cl)C1=O	23.7 µM	28.6 µM	39.2 µM	26.5 µM	35.4 µM	39.4 µM	30.1 µM	43.4 µM	36.5 µM	13.6 µM	–	–	–	–	–
ClCCCCCc1c2nc(c(CCCCCCl)c3ccc([nH]3)c(CCCCCCl)c3ccc([nH]3)c(CCCCCCl)c3nc1C=C3)C=C2	> 100 µM	> 100 µM	> 100 µM	> 100 µM	> 100 µM	> 100 µM	> 100 µM	> 100 µM	> 100 µM	> 100 µM	–	–	–	–	–
CCOC(=O)C(Cl)(NC(=O)OCc1ccccc1)C(F)(F)F (stereo not given)	> 100 µM	> 100 µM	> 100 µM	> 100 µM	> 100 µM	> 100 µM	> 100 µM	> 100 µM	> 100 µM	> 100 µM	–	–	–	–	–
CC(C)Oc1c(-c2ccc(F)cc2)c(O)c2c3c1oc(=O)n3C=CC2C (stereo not given)	32.2 µM	27.2 µM	28.6 µM	25.5 µM	28.5 µM	30.6 µM	23.3 µM	34.6 µM	30.2 µM	34.7 µM	–	–	–	–	–
